Reference: ChEMBL document CHEMBL4602696, “LMP2 Inhibitors as a Potential Treatment for Alzheimer's Disease” (J Med Chem, 2020)
Calls of active or inactive are those of the source. No cut-off for these calls is given here.

Assays:
[1] = Inhibition of LMP7/Beta 5 subunit chymotrypsin-like activity in human RPM18226 cell lysates using Suc-LLVY-AMC as substrate after 1 hr by fluorescence based microplate reader analysis; assay type: cell-free; details: rpmi-8226
[2] = molecular target: T1, Proteasome subunit beta type-9 (Homo sapiens, UniProt P28065); experiment: Inhibition of LMP2 in human 20S immunoproteasome using Ac-PAL-AMC as substrate after 1 hr by fluorescence based microplate reader analysis
T1 sequence (P28065 whole entry): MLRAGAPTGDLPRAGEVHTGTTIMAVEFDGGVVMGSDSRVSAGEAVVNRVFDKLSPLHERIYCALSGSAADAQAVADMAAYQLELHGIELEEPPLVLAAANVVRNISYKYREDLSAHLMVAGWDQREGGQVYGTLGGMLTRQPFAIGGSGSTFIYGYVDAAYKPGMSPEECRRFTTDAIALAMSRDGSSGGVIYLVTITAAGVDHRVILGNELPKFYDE

[3] = molecular target: T2, Proteasome subunit beta type-8 (Homo sapiens, UniProt P28062); experiment: Inhibition of LMP7 in human 20S immunoproteasome using Ac-ANW-AMC as substrate after 1 hr by fluorescence based microplate reader analysis
T2 sequence (P28062 whole entry): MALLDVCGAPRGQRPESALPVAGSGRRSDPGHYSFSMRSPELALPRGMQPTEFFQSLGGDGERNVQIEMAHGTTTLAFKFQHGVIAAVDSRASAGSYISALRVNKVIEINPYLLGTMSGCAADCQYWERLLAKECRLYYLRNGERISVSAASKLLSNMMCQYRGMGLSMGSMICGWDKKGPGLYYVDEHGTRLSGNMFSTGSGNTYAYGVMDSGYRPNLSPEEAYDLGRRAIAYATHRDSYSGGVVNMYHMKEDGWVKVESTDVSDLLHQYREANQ

[4] = molecular target: T3, Proteasome Macropain subunit MB1 (Homo sapiens, UniProt P28074); experiment: Inhibition of Beta5 in human 20S […] usingAc-WLA-AMC as substrate after 1 hr by fluorescence based microplate reader analysis
T3 sequence (P28074 whole entry): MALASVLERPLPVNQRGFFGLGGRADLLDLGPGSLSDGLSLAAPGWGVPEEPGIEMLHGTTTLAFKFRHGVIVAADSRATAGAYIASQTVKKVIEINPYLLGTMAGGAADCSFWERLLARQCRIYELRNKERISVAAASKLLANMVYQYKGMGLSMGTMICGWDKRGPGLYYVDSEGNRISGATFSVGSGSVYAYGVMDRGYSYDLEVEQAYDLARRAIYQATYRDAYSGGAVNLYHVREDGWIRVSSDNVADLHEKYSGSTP

[5] = molecular target: T4, Proteasome subunit beta type-9 (Homo sapiens) (UniProt P28065); experiment: Inhibition of LMP2 subunit in human DLD1 cells over expressing ABCB1 at 1 uM using Ac-PAL-AMC as substrate incubated for 4 hrs; assay type: cell-based; details: DLD-1
T4 sequence (whole entry): T1 sequence (P28065 whole entry)

[6] = molecular target: T4, Proteasome subunit beta type-9 (Homo sapiens); experiment: Inhibition of immunoproteasome LMP2 subunit in human DLD1 cells over expressing ABCB1 at 3 uM using Ac-PAL-AMC as substrate incubated for 4 hrs in presence of reversin-121; assay type: cell-based; details: DLD-1

Row | SMILES | IC50 [1] [nM] | IC50 [2] [nM] | IC50 [3] [nM] | IC50 [4] [nM] | inhibition [5] | inhibition [6]
1 | CC(=O)NCC(=O)N1CCC[C@H]1C(=O)N[C@@H](Cc1ccc(-c2ccccc2)cc1)C(=O)N[C@@H](CC(C)C)C(=O)[C@@]1(C)CO1 | 5300 | 21.7 | – | – | – | –
2 | CC(C)C[C@H](NC(=O)[C@H](Cc1ccccc1)NC(=O)[C@@H]1CCCN1C(=O)CNC(=O)C(F)(F)F)C(=O)[C@@]1(C)CO1 | > 10000 | 131 | – | – | – | –
3 | CC(=O)NCC(=O)N1CCC[C@H]1C(=O)N[C@@H](Cc1ccc(F)cc1)C(=O)N[C@@H](CC(C)C)C(=O)[C@@]1(C)CO1 | > 10000 | 82 | – | – | – | –
4 | CC(=O)NCC(=O)N1CCC[C@H]1C(=O)N[C@@H](Cc1ccc(NC(=O)c2ccccc2)cc1)C(=O)N[C@@H](CC(C)C)C(=O)[C@@]1(C)CO1 | 5080 | 72 | – | – | – | –
5 | CC(=O)NCC(=O)N1C[C@H](F)C[C@H]1C(=O)N[C@@H](Cc1ccccc1)C(=O)N[C@@H](CC(C)C)C(=O)[C@@]1(C)CO1 | > 10000 | 151 | – | – | – | –
6 | CC(=O)NCC(=O)N1CCCC[C@H]1C(=O)N[C@@H](Cc1ccccc1)C(=O)N[C@@H](CC(C)C)C(=O)[C@@]1(C)CO1 | 1310 | 123 | – | – | – | –
7 | CC(=O)NCC(=O)N1CCC[C@H]1C(=O)N[C@@H](Cc1ccc(NC(=O)CN2CCOCC2)cc1)C(=O)N[C@@H](CC(C)C)C(=O)[C@@]1(C)CO1 | > 10000 | 90.9 | – | – | – | –
8 | CC(=O)NCC(=O)N1CCC[C@H]1C(=O)N[C@@H](Cc1ccc2ccccc2c1)C(=O)N[C@@H](CC(C)C)C(=O)[C@@]1(C)CO1 | > 10000 | 33.5 | – | – | – | –
9 | CC(=O)NCC(=O)N1CCC[C@H]1C(=O)N[C@@H](Cc1ccc(C(C)(C)C)cc1)C(=O)N[C@@H](CC(C)C)C(=O)[C@@]1(C)CO1 | > 10000 | 121 | – | – | – | –
10 | COc1cnc(C(=O)NCC(=O)N2CCC[C@H]2C(=O)N[C@@H](Cc2ccccc2)C(=O)N[C@@H](CC(C)C)C(=O)[C@@]2(C)CO2)cn1 | > 10000 | 111 | – | – | – | –
11 | CC(C)C[C@H](NC(=O)[C@H](Cc1ccc(-c2ccccc2)cc1)NC(=O)[C@@H]1CCCN1C(=O)CNC(=O)c1cnccn1)C(=O)[C@@]1(C)CO1 | 10000 | 62.8 | – | – | – | –
12 | CC(C)C[C@H](NC(=O)[C@H](Cc1ccccc1)NC(=O)[C@@H]1CCCN1C(=O)CNS(C)(=O)=O)C(=O)[C@@]1(C)CO1 | > 10000 | 115 | – | – | – | –
13 | Cc1ncc(C(=O)NCC(=O)N2CCC[C@H]2C(=O)N[C@@H](Cc2ccc3ccccc3c2)C(=O)N[C@@H](CC(C)C)C(=O)[C@@]2(C)CO2)s1 | > 10000 | 183 | – | – | – | –
14 | CC(C)C[C@H](NC(=O)[C@H](Cc1ccccc1)NC(=O)[C@@H]1CCCN1C(=O)CN1CCOCC1=O)C(=O)[C@@]1(C)CO1 | > 10000 | 1040 | – | – | – | –
15 | CC(=O)NCC(=O)N1CCC[C@H]1C(=O)N[C@@H](Cc1ccccc1)C(=O)N[C@@H](CC(C)C)C(=O)[C@]1(C)CO1 | – | – | > 10000 | > 10000 | – | –
16 | CC(=O)NCC(=O)N1CCC[C@H]1C(=O)N[C@@H](CCc1ccccc1)C(=O)N[C@@H](CC(C)C)C(=O)[C@@]1(C)CO1 | > 10000 | 58 | – | – | – | –
17 | CC(C)C[C@H](NC(=O)[C@H](Cc1ccccc1)NC(=O)[C@@H]1CCCN1C(=O)c1cccc(O)n1)C(=O)[C@@]1(C)CO1 | > 10000 | 1010 | – | – | – | –
18 | CC(=O)NCC(=O)N1CCC[C@H]1C(=O)N[C@@H](Cc1ccc(NC(=O)c2cnccn2)cc1)C(=O)N[C@@H](CC(C)C)C(=O)[C@@]1(C)CO1 | > 10000 | 33.2 | – | – | – | –
19 | Cc1ncc(C(=O)NCC(=O)N2CCC[C@H]2C(=O)N[C@@H](Cc2ccc(-c3ccccc3)cc2)C(=O)N[C@@H](CC(C)C)C(=O)[C@@]2(C)CO2)s1 | 10000 | 115 | – | – | Active | –
20 | CC(=O)NCC(=O)N1CCC[C@@]1(C)C(=O)N[C@@H](Cc1ccccc1)C(=O)N[C@@H](CC(C)C)C(=O)[C@@]1(C)CO1 | > 10000 | 152 | – | – | – | –

Row | SMILES | IC50 [1] [nM] | IC50 [2] [nM] | IC50 [3] [nM] | IC50 [4] [nM] | inhibition [5] | inhibition [6]
21 | Cc1cc(C(=O)NCC(=O)N2CCC[C@H]2C(=O)N[C@@H](CCc2ccccc2)C(=O)N[C@@H](CC(C)C)C(=O)[C@@]2(C)CO2)no1 | 10000 | 132 | – | – | – | –
22 | CC(=O)NCC(=O)N1CCC[C@H]1C(=O)N[C@@H](CO)C(=O)N[C@@H](CC(C)C)C(=O)[C@@]1(C)CO1 | > 10000 | 120 | – | – | – | –
23 | CC(C)C[C@H](NC(=O)[C@H](Cc1ccccc1)NC(=O)[C@@H]1CCCN1C(=O)CNC(=O)c1cccc(O)n1)C(=O)[C@@]1(C)CO1 | > 10000 | 143 | – | – | – | –
24 | CCc1ccc(C[C@H](NC(=O)[C@@H]2CCCN2C(=O)CNC(C)=O)C(=O)N[C@@H](CC(C)C)C(=O)[C@@]2(C)CO2)cc1 | > 10000 | 134 | – | – | – | –
25 | Cc1ncc(C(=O)NCC(=O)N2CCC[C@H]2C(=O)N[C@@H](CCc2ccccc2)C(=O)N[C@@H](CC(C)C)C(=O)[C@@]2(C)CO2)s1 | > 10000 | 103 | – | – | – | –
26 | CC(=O)NCC(=O)N1CCC[C@H]1C(=O)N[C@@H](Cc1ccccc1)C(=O)N[C@@H](CC1CCCCC1)C(=O)[C@@]1(C)CO1 | > 10000 | 201 | – | – | – | –
27 | CC(C)C[C@H](NC(=O)[C@H](Cc1ccccc1)NC(=O)[C@@H]1CCCN1C(=O)CN1CCOCC1)C(=O)[C@@]1(C)CO1 | > 10000 | 1220 | – | – | – | –
28 | CCCC[C@H](NC(=O)[C@@H]1CCCN1C(=O)CNC(C)=O)C(=O)N[C@@H](CC(C)C)C(=O)[C@@]1(C)CO1 | > 10000 | 120 | – | – | – | –
29 | CC(=O)NCC(=O)N1CCC[C@H]1C(=O)N[C@@H](Cc1ccncc1)C(=O)N[C@@H](CC(C)C)C(=O)[C@@]1(C)CO1 | 10000 | 122 | – | – | – | –
30 | C[C@]1(C(=O)[C@H](Cc2ccccc2)NC(=O)[C@H](CO)NC(=O)c2cccc(=O)[nH]2)CO1 | > 10000 | 158 to 162 | > 10000 | > 10000 | inactive | Active
31 | CC(=O)NCC(=O)N1CCC[C@H]1C(=O)N[C@@H](Cc1cccc2ccccc12)C(=O)N[C@@H](CC(C)C)C(=O)[C@@]1(C)CO1 | > 10000 | 29.7 | – | – | – | –
32 | CC(=O)NCC(=O)N1CC(F)(F)C[C@H]1C(=O)N[C@@H](Cc1ccccc1)C(=O)N[C@@H](CC(C)C)C(=O)[C@@]1(C)CO1 | > 10000 | 71.8 | – | – | – | –
33 | CC(C)C[C@H](NC(=O)[C@H](CCc1ccccc1)NC(=O)[C@@H]1CCCN1C(=O)CNC(=O)c1cnccn1)C(=O)[C@@]1(C)CO1 | > 10000 | 131 | – | – | Active | –
34 | CC(=O)NCC(=O)N1CCC[C@H]1C(=O)N[C@@H](Cc1ccccc1)C(=O)N[C@@H](Cc1ccccc1)C(=O)[C@@]1(C)CO1 | > 10000 | 342 | – | – | – | –
35 | CC(=O)NCC(=O)N1CC(=O)C[C@H]1C(=O)N[C@@H](Cc1ccccc1)C(=O)N[C@@H](CC(C)C)C(=O)[C@@]1(C)CO1 | > 10000 | 622 | – | – | – | –
36 | CC(=O)NCC(=O)N1CC[C@H]1C(=O)N[C@@H](Cc1ccccc1)C(=O)N[C@@H](CC(C)C)C(=O)[C@@]1(C)CO1 | > 10000 | 100 | – | – | – | –
37 | CC(=O)NCC(=O)N1CCC[C@H]1C(=O)N[C@@H](Cc1ccccc1)C(=O)N[C@@H](CC(C)C)C(=O)[C@@]1(C)CO1 | > 10000 | – | > 10000 | > 10000 | inactive | Active
38 | CC(C)C[C@H](NC(=O)[C@H](Cc1ccc2ccccc2c1)NC(=O)[C@@H]1CCCN1C(=O)CNC(=O)c1cnccn1)C(=O)[C@@]1(C)CO1 | 5760 | 90.1 | – | – | – | –
39 | Cc1ncc(C(=O)NCC(=O)N2CCC[C@H]2C(=O)N[C@@H](Cc2ccccc2)C(=O)N[C@@H](CC(C)C)C(=O)[C@@]2(C)CO2)s1 | > 10000 | 106 | – | – | – | –
